US20050008607A1, “Composition containing a carbonyl amine” (priority 2003, published 2005)
Entries after “also recorded” stand apart in the source; their conditions may differ.

Key:
[1] = system: human striated muscle cells innervated with explants of spinal cord and of spinal ganglia from rat embryos; format: cell-based
wrinkles = conditions: in vivo; cited from earlier work

CCCCCC(=O)CCN(CC)CCCc1ccccc1 [Compound (4)]
contractions of three muscle fibres ([1]; 100 μM, incubated for 60 seconds, contractions counted over 30 seconds): blocks the contractions

CN1C(=O)CN=C(c2ccccc2)c2cc(Cl)ccc21 [diazepam, reference compound]
muscle fibre contractions [1]: inhibited muscle fibre contractions | anti-wrinkle activity (wrinkles): demonstrated in vivo

botulinum toxin
blocking effect on contractions [1]: blocking effect which is much weaker; also recorded: complete | blocking of the contractions [1]: completely blocks the contractions | frequency of the contractions [1]: greatly decreases the frequency of the contractions
